# In publication PMC9729826, “Hypoaminoacidemia underpins glucagon-mediated energy expenditure and weight loss” (Cell Reports Medicine, 2022):
# Starred links: 1 amine or outer side, 2 acyl side, 3 side chain; linkers in the order of their positions; H or OH if unused. Non-standard residues stand in square brackets, D forms with d. Residues, ends and D or L forms follow the SMILES beside them. Groups on a side chain read outwards from the residue. *: point of attachment. C18 diacid = O=C(O)CCCCCCCCCCCCCCCCC(=O)*; γGlu = O=C(O)[C@H](CCC(=O)[*:2])N[*:1]; Aib = CC(C)(N)C(=O)O
# Key:
# Format in all cases: in vivo, mouse
# [1] = system: lean C57BL/6 mice; assay: 18-day dose-finding study of food intake in lean mice
# Protocol: C57BL/6 mice matched for weight and age (14-week-old, N = 24) were administered via subcutaneous injection at 9 am daily for 18 days, vehicle control or G108 diluted in sterile HPLC water. Ascending doses of either 5 nmol/kg, 10 nmol/kg or 20 nmol/kg G018 were administered. All mice had ad libitum access to RM1 diet (Special Diet Services, UK) and water. Food intake and body weights were recorded daily.
# Food intake was measured daily using a dedicated weighing scale and topped up accordingly. Body weight was recorded at 9 am daily or every 48 h using the same weighing scale. Body composition was measured using an EchoMRI analyser at various timepoints during chronic studies. Body composition measurements were taken on the same time of day to reduce intra-animal variability. Animals were placed in a transparent cylindrical Perspex tube and both ends secured with Perspex clips. The tubes containing the animal was then carefully placed into the MRI machine (EchoMRI −100H analyser, EchoMRI). Each scan lasted approximately 90 s where lean mass and fat mass were recorded in grams. Following the scan, the mice were removed from the Perspex tube and returned to their respective cages.
# [2] = system: lean C57BL/6 mice; assay: Blood glucose after a single dose in lean mice; details: 10 nmol/kg single intraperitoneal injection, up to 2 h, n = 6/group
# Protocol: (§1) Twelve weight-matched 12-week-old lean C57BL/6 mice were fasted for 2 h prior to a single intraperitoneal injection of 10 nmol/kg dose of G108 diluted in sterile HPLC water (pH > 7), or vehicle control alone. Tail venesection was performed at baseline, 15, 30, 60 and 120 min and blood glucose measured using a handheld GlucoRx meter. For hepatic carbohydrate and amino acid metabolism gene expression analysis, weight-matched 12-week-old lean C57BL/6 mice were subcutaneously administered with 20 nmol/kg G108 diluted in sterile HPLC water (pH > 7), or vehicle control via subcutaneous injection at 9 am (N = 8). All animals had ad libitum access to RM1 diet and water. Liver tissue was dissected at 24 h and stored at −80°C prior to hepatic gene expression analysis.
# [3] = system: lean C57BL/6 mice; assay: Hepatic gene expression 24 h after a single dose in lean mice; details: 20 nmol/kg single s.c. dose, liver at 24 h, qPCR, n = 4/group
# Protocol: as §1
# RNA was extracted from liver, muscle and BAT tissue using 1 mL TRIzol added to samples prior to homogenisation within a mechanical homogeniser for 2–3 min. Chloroform was added to each individual sample prior to gentle shaking and centrifugation at 16000 × g for 15 min. […] RNA was quantified in addition to quality assessed using a NanoDrop spectrophotometer and 1 μg of RNA was then used for the synthesis of cDNA using the iScript cDNA synthesis Kit (Bio-Rad). Quantitative polymerase chain reaction (qPCR) was then undertaken using the SYBR-Green method using KiCqStart SYBR Green primers (Merck).
# [4] = system: diet-induced obese (DIO) C57BL/6 mice; assay: Total amino acid supplementation in G108-treated DIO mice; details: n = 8/group
# Excerpt: Lean 10-week-old C57BL/6 mice (N = 32) were provided ad libitum a 60 kcal% high fat diet (diet D12492, Table S2) ad libitum for 8 weeks. Half of the animals were then provided with a high fat standard protein diet (D08091803, Table S2) or a high fat standard protein diet supplemented with additional total amino acids (SP + TAA diet, Formula 1, Table S3). From each diet group, animals were allocated to receive either 7.5 nmol/kg G108 or vehicle control (N = 8/group). The subsequent four treatment groups were as follows: Vehicle/SP diet, G108/SP diet, Vehicle/SP + TAA diet, G108/SP + TAA diet. Food intake and body weight was recorded every 48 h during the study. Baseline body composition analysis (EchoMRI) was carried out in addition body composition analysis on day 18. […]
# To measure energy expenditure, DIO mice were placed into a Comprehensive Laboratory Animal Monitoring System (CLAMS, Columbus instruments, Columbus, US). […] Food intake was also measured electronically without the need to remove food. […] Feed efficiency was calculated as mg body weight change per kJ consumed.
# (§2) Plasma total amino acids were measured using fluorometric-based ELISA kits as described (MAK002, Sigma-Aldrich, Ab65347, Abcam). Plasma FGF21 was measured using a fluorescent based ELISA kit (ab229382, Abcam). Plasma triglyceride, cholesterol and leptin were measured using ELISA kits (ab65336, ab65390, ab199082, Abcam). […]
# [5] = system: Gcgr^Δliver mice; assay: Chronic study in hepatic-specific glucagon receptor knockout mice; details: 5 nmol/kg s.c. daily, 14 days, n = 7-8/group
# Protocol: Age-matched (12-week-old) Gcgr^flox/flox:Alb-Cre + (Gcgr^Δliver) and Gcgr^flox/flox:Alb-Cre- (control) mice were subcutaneously administered daily with either 5 nmol/kg G108 or vehicle control (HPLC water) for 14 days (N = 7–8/group). All mice were single-housed and had ad libitum access to water and a standard (20 kcal%) protein diet (diet D11112201, Table S2). Food intake and body weight were measured daily prior to administration of peptide each day. EchoMRI analysis was carried out at baseline and day 14. Tail venesection was carried out 4-h post-dose on day 14. Blood samples were immediately transferred on ice, centrifuged at 2800 × g for 10 min prior to plasma total amino acid analysis.
# Food intake was measured daily using a dedicated weighing scale and topped up accordingly. Body weight was recorded at 9 am daily or every 48 h using the same weighing scale. Body composition was measured using an EchoMRI analyser at various timepoints during chronic studies. […] Each scan lasted approximately 90 s where lean mass and fat mass were recorded in grams. […]
# as §2
compound,measurement,setting,value
CC[C@H](C)[C@H](NC(=O)[C@H](Cc1ccccc1)NC(=O)[C@H](CCC(=O)O)NC(=O)[C@H](CCC(N)=O)NC(=O)[C@H](C)NC(=O)[C@H](CCCNC(=N)N)NC(=O)[C@H](CCCCN)NC(=O)[C@H](C)NC(=O)[C@H](CC(=O)O)NC(=O)[C@H](CC(C)C)NC(=O)[C@H](Cc1ccc(O)cc1)NC(=O)[C@H](CCCNC(=N)N)NC(=O)[C@H](CO)NC(=O)[C@H](Cc1ccc(O)cc1)NC(=O)[C@H](CC(=O)O)NC(=O)[C@H](CO)NC(=O)[C@@H](NC(=O)[C@H](Cc1ccccc1)NC(=O)[C@@H](NC(=O)CNC(=O)[C@H](Cc1c[nH]cn1)NC(=O)C(C)(C)NC(=O)[C@@H](N)Cc1c[nH]cn1)[C@@H](C)O)[C@@H](C)O)C(=O)N[C@@H](CCC(=O)O)C(=O)N[C@@H](Cc1c[nH]c2ccccc12)C(=O)N[C@@H](CC(C)C)C(=O)N[C@@H](CC(C)C)C(=O)N[C@@H](CCC(N)=O)C(=O)N[C@@H](CO)C(=O)N[C@@H](Cc1c[nH]cn1)C(=O)N[C@@H](Cc1c[nH]cn1)C(=O)N[C@@H](CCC(N)=O)C(=O)N[C@@H](Cc1c[nH]cn1)C(=O)N[C@@H](Cc1c[nH]cn1)C(=O)N1CCC[C@H]1C(=O)N[C@@H](CO)C(=O)N1CCC[C@H]1C(=O)N1CCC[C@H]1C(=O)N1CCC[C@H]1C(=O)N[C@@H](CCCCNC(=O)[C@H](CC(N)=O)NC(=O)CC[C@H](NC(=O)CCCCCCCCCCCCCCCCC(=O)O)C(=O)O)C(N)=O [Peptide G108] (H-H[Aib]HGTFTSDYSRYLDAKRAQEFIEWLLQSHHQHHPSPPPK([Asn-γGlu-C18 diacid])-NH2; N-terminus and C-terminus assumed),food intake,[1]; 5 nmol/kg s.c. daily,no effect on food intake
same,food intake,"[1]; 10 nmol/kg s.c. daily, 18 days, n = 6/group",sustained reduction in food intake
same,food intake,"[1]; 20 nmol/kg s.c. daily, 18 days, n = 6/group",sustained reduction in food intake
same,blood glucose after a single dose,[2],acute increase in blood glucose
same,expression of hepatic amino acid catabolism (urea cycle) genes,[3],increased the expression of a number of genes involved in amino acid catabolism
same,expression of hepatic gluconeogenic enzymes,[3],increased the expression of hepatic gluconeogenic enzymes
same,body weight on SP diet supplemented with total amino acids (SP + TAA),"[4]; 7.5 nmol/kg daily, 20 days",prevented G108-mediated weight loss independent of food intake
same,blood glucose over 4 hours after acute administration,"[4]; single 7.5 nmol/kg dose, following a transient increase",reduction in blood glucose that lasted several hours
same,"effects on body weight, lean mass and plasma amino acids in mice lacking the hepatic GCGR",[5],completely refractory
